ChEMBL document CHEMBL4017541, “Membrane-Active Hydantoin Derivatives as Antibiotic Agents” (J Med Chem, 2017)
Converted amounts (≈) assume the structure as drawn. The source made the active and inactive calls. No cut-off for these calls is given here.

Key:
[1] = test system: Staphylococcus aureus; assay: Antimicrobial activity against methicillin resistant Staphylococcus aureus ATCC 33591 after 16 hrs; assay type: functional; details: ATCC 33591, 16 h
[2] = test system: Staphylococcus epidermidis; assay: Antimicrobial activity against methicillin resistant Staphylococcus epidermidis RP62A after 16 hrs; assay type: functional
[3] = test system: Enterococcus faecalis; assay: Antimicrobial activity against vancomycin resistant Enterococcus faecalis ATCC 700802 after 16 hrs; assay type: functional; details: ATCC 700802, 16 h
[4] = test system: Escherichia coli; assay: Antimicrobial activity against Escherichia coli ATCC 25922 after 16 hrs; assay type: functional; details: ATCC 25922, 16 h
[5] = test system: Pseudomonas aeruginosa; assay: Antimicrobial activity against Pseudomonas aeruginosa ATCC 27853 after 16 hrs; assay type: functional; details: ATCC 27853, 16 h
[6] = test system: Klebsiella pneumoniae; assay: Antimicrobial activity against Klebsiella pneumoniae ATCC 13383 after 16 hrs; assay type: functional; details: ATCC 13383, 16 h
[7] = Selectivity index, ratio of HC50 for mouse RBC to MIC for methicillin resistance Staphylococcus aureus ATCC 33591
[8] = Retention time of compound by HPLC analysis
[9] = test system: Staphylococcus aureus; assay: Antibacterial activity against methicillin resistance Staphylococcus aureus ATCC 33591 infected in Wistar rat assessed as reduction in bacterial load in bronchoalveolar lavage of lungs at 10 mg/kg, iv treated 24 hrs post infection measured after 3 days relative to control; assay type: functional; parameters: scale not given: the % may be the effect or the level left
[10] = test system: Staphylococcus aureus; assay: Antibacterial activity against methicillin resistance Staphylococcus aureus ATCC 33591 infected in Wistar rat assessed as reduction in bacterial load in bronchoalveolar lavage of lungs at 10 mg/kg, iv treated 24 hrs post infection measured after 5 days relative to control; assay type: functional; parameters: scale not given: the % may be the effect or the level left
[11] = test system: Staphylococcus aureus; assay: Antibacterial activity against methicillin resistant Staphylococcus aureus ATCC 33591 infected in Wistar rat assessed as reduction in lung inflammation at 10 mg/kg, iv treated 24 hrs post infection measured after 5 days by hematoxylin/ eosin staining based microscopic analysis; assay type: functional, organism-based
[12] = test system: Staphylococcus aureus; assay: Antibacterial activity against methicillin resistant Staphylococcus aureus ATCC 33591 infected in Wistar rat assessed as reduction in lung inflammation at 10 mg/kg, iv treated 24 hrs post infection measured after 3 days by hematoxylin/ eosin staining based microscopic analysis; assay type: functional, organism-based

| Structure (SMILES) | MIC [1] | MIC [2] | MIC [3] | MIC [4] | MIC [5] | MIC [6] | Selectivity Index [7] | Retention time [8] | Activity [9] | Activity [10] | Activity [11] | Activity [12] |
| --- | --- | --- | --- | --- | --- | --- | --- | --- | --- | --- | --- | --- |
| CCCCCCCCCCCCCC(=O)N[C@@H](CCCCN)CN1CC(=O)N(c2cccc(Cl)c2)C1=O | 12.5 µg/mL (≈ 23.4 µM) | 12.5 µg/mL (≈ 23.4 µM) | 12.5 µg/mL (≈ 23.4 µM) | > 50 µg/mL | > 50 µg/mL | > 50 µg/mL |  |  |  |  |  |  |
| CCCCCCCCCCCCCC(=O)N[C@@H](CCCCN)CN1CC(=O)N(CC)C1=O | 6.25 µg/mL (≈ 13.8 µM) | 6.25 µg/mL (≈ 13.8 µM) | 6.25 µg/mL (≈ 13.8 µM) | 3.12 µg/mL (≈ 6.89 µM) | 12.5 µg/mL (≈ 27.6 µM) | 6.25 µg/mL (≈ 13.8 µM) | 14.4 |  |  |  |  |  |
| CCCCCCCCCCCCCCCC(=O)N[C@@H](CCCCN)CN1CC(=O)N(C23CC4CC(CC(C4)C2)C3)C1=O | > 50 µg/mL | > 50 µg/mL | > 50 µg/mL | > 50 µg/mL | > 50 µg/mL | > 50 µg/mL |  |  |  |  |  |  |
| CCCCCCCCCC(=O)N[C@@H](CCCCN)CN1CC(=O)N(c2ccc(OC)cc2)C1=O | > 50 µg/mL | > 50 µg/mL | > 50 µg/mL | > 50 µg/mL | > 50 µg/mL | > 50 µg/mL |  | < 26 min |  |  |  |  |
| CCCCCCCCCCCC(=O)N[C@@H](CCCCN)CN1CC(=O)N(c2ccc(OC)cc2)C1=O | 25 µg/mL (≈ 49.7 µM) | 25 µg/mL (≈ 49.7 µM) | 25 µg/mL (≈ 49.7 µM) | 12.5 µg/mL (≈ 24.9 µM) | 12.5 µg/mL (≈ 24.9 µM) | 12.5 µg/mL (≈ 24.9 µM) | 8 | < 26 min |  |  |  |  |
| CCCCCCCCCCCCCCCC(=O)N[C@@H](CCCCN)CN1CC(=O)N(CCCC)C1=O | 6.25 µg/mL (≈ 12.3 µM) | 6.25 µg/mL (≈ 12.3 µM) | 6.25 µg/mL (≈ 12.3 µM) | > 50 µg/mL | > 50 µg/mL | > 50 µg/mL |  |  |  |  |  |  |
| CCCCCCCCCCCCCCCC(=O)N[C@@H](CCCCN)CN1CC(=O)N(C2CCCCC2)C1=O | 3.12 µg/mL (≈ 5.83 µM) | 25 µg/mL (≈ 46.7 µM) | 25 µg/mL (≈ 46.7 µM) | > 50 µg/mL | > 50 µg/mL | > 50 µg/mL |  |  |  |  |  |  |
| CCCCCCCCCC(=O)N[C@@H](CCCCN)CN1CC(=O)N(C2CCCCC2)C1=O | 25 µg/mL (≈ 55.5 µM) | > 50 µg/mL | > 50 µg/mL | 12.5 µg/mL (≈ 27.7 µM) | > 50 µg/mL | 25 µg/mL (≈ 55.5 µM) |  | < 26 min |  |  |  |  |
| CCCCCCCCCC(=O)N[C@@H](CCCCN)CN1CC(=O)N(CCCC)C1=O | > 50 µg/mL | > 50 µg/mL | > 50 µg/mL | > 50 µg/mL | > 50 µg/mL | > 50 µg/mL |  | < 26 min |  |  |  |  |
| CCCCCCCCCCCCCC(=O)N[C@@H](CCCCN)CN1CC(=O)N(C23CC4CC(CC(C4)C2)C3)C1=O |  | 3.15 µg/mL (≈ 5.64 µM) | 6.25 µg/mL (≈ 11.2 µM) | > 50 µg/mL | > 50 µg/mL | > 50 µg/mL |  |  |  |  |  |  |
| CCCCCCCCCCCC(=O)N[C@@H](CCCCN)CN1CC(=O)N(C2CCCCC2)C1=O | 6.25 µg/mL (≈ 13.1 µM) | 6.25 µg/mL (≈ 13.1 µM) | 12.5 µg/mL (≈ 26.1 µM) | 6.25 µg/mL (≈ 13.1 µM) | 12.5 µg/mL (≈ 26.1 µM) | 6.25 µg/mL (≈ 13.1 µM) | 16 |  |  |  |  |  |
| CN[C@H](CC(C)C)C(=O)N[C@H]1C(=O)N[C@@H](CC(N)=O)C(=O)N[C@H]2C(=O)N[C@H]3C(=O)N[C@H](C(=O)N[C@H](C(=O)O)c4cc(O)cc(O)c4-c4cc3ccc4O)[C@H](O)c3ccc(c(Cl)c3)Oc3cc2cc(c3O[C@@H]2O[C@H](CO)[C@@H](O)[C@H](O)[C@H]2O[C@H]2C[C@](C)(N)[C@H](O)[C@H](C)O2)Oc2ccc(cc2Cl)[C@H]1O [VANCOMYCIN] |  |  |  |  |  |  |  |  | 30% | 45% | Active | Active |
| CCCCCCCCCCCCCC(=O)N[C@@H](CCCCN)CN1CC(=O)N(c2ccc(OC)cc2)C1=O | 6.25 µg/mL (≈ 11.8 µM) | 6.25 µg/mL (≈ 11.8 µM) | 6.25 µg/mL (≈ 11.8 µM) | 6.25 µg/mL (≈ 11.8 µM) | > 50 µg/mL | 25 µg/mL (≈ 47.1 µM) |  |  |  |  |  |  |
| CCCCCCCCCC(=O)N[C@@H](CCCCN)CN1CC(=O)N(c2cccc(Cl)c2)C1=O | 6.25 µg/mL (≈ 13 µM) | 6.25 µg/mL (≈ 13 µM) | 12.5 µg/mL (≈ 26.1 µM) | 6.25 µg/mL (≈ 13 µM) | 6.25 µg/mL (≈ 13 µM) | 6.25 µg/mL (≈ 13 µM) | 16 |  |  |  |  |  |
